Assay results as given in patent US20120129835A1 (priority 2010, published 2012).

Tested on: SCZD hiPSC neurons
Format: cell-based, human

| Molecule | rabies trans-neuronal tracing in the presence of drugs known to affect synaptic transmission |
| --- | --- |
| [Cl-].[K+] [KCl] | occurs |
| NC1=N[C@H](O)[C@H]2[C@H]3O[C@]4(O)O[C@@H]([C@@H](O)[C@@]2(N1)[C@@H]4O)[C@]3(O)CO [tetrodotoxin] | occurs |
| ryanodine | occurs |
